Laboratory results taken from patent publication US5175158A, “Condensed diazepinones, processes for preparing them and pharmaceutical compositions containing these compounds” (Dr. Karl Thomae, GmbH, priority 1987, dated 1992).

Experiments:
[1] = target: muscarinic receptors (cerebral cortex); assay: Receptor binding test in vitro, cerebral cortex (3H-N-methylscopolamine displacement); design: species or system rat (male Sprague-Dawley); conditions: 0.3 nanomolar 3H-NMS, 30° C., 45 minutes, pH 7.4
Protocol: (§1) The organs were donated by male Sprague-Dawley rats weighing 180-220 g. After the heart and submandibular gland and cerebral cortex had been removed, all other steps were carried out in ice cold Hepes HCl buffer (pH 7.4; 100 millimolar NaCl, 10 millimolar MgCl2). The whole heart was cut up with scissors. All the organs were then homogenised in a Potter apparatus.
(§2) For the binding test the homogenised organs were diluted as follows:
(§3) The homogenised organs were incubated at a certain concentration of the radioaligned and at a series of concentrations of the non-radioactive test substances in an Eppendorf centrifuge tube at 30° C. Incubation lasted 45 minutes. The radioligand used was 0.3 nanomolar ^3 H-N-methylscopolamine (^3 H-NMS). Incubation was ended by the addition of ice cold buffer followed by vacuum filtration. The filters were rinsed with cold buffer and their radioactivity was determined. It represents the sum of specific and non-specific binding of ^3 H-NMS. The proportion of non-specific binding was defined as the radioactivity which was bound in the presence of 1 micromolar quinuclidinylbenzylate. Each measurement was taken four times. The IC50 values of the non-labelled test substances were determined graphically. They represent that concentration of test substance at which the specific binding of ^3 H-NMS to the muscarinic receptors in the various organs was inhibited by 50%. […] PG,17

[2] = target: T1, muscarinic receptors (heart) (Rattus norvegicus, UniProt P10980); assay: Receptor binding test in vitro, heart (3H-N-methylscopolamine displacement); design: species or system rat (male Sprague-Dawley); conditions: whole heart; 0.3 nanomolar 3H-NMS; 30° C.; 45 minutes; pH 7.4
T1 construct: The whole heart was cut up with scissors; All the organs were then homogenised in a Potter apparatus; from tissue; host or cells: rat whole heart homogenate
T1 sequence (P10980 1-466): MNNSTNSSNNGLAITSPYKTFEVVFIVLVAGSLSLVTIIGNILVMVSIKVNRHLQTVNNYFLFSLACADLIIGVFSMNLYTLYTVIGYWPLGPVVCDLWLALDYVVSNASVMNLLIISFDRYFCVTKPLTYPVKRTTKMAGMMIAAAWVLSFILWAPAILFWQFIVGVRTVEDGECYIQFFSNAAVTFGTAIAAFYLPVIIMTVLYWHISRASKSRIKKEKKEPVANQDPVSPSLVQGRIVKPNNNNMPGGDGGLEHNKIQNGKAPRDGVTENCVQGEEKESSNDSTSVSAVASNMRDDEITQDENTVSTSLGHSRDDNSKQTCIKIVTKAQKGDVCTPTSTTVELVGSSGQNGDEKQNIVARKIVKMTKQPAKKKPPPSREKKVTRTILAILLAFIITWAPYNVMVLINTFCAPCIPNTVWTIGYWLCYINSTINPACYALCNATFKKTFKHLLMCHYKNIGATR
Protocol: as §1, §2, §3

[3] = target: T2, muscarinic receptors (submandibular gland) (Rattus norvegicus, UniProt P08483); assay: Receptor binding test in vitro, submandibular gland (3H-N-methylscopolamine displacement); design: species or system rat (male Sprague-Dawley); conditions: 0.3 nanomolar 3H-NMS, 30° C., 45 minutes, pH 7.4
T2 construct: All the organs were then homogenised in a Potter apparatus; from tissue; host or cells: rat submandibular gland homogenate
T2 sequence (P08483 whole entry): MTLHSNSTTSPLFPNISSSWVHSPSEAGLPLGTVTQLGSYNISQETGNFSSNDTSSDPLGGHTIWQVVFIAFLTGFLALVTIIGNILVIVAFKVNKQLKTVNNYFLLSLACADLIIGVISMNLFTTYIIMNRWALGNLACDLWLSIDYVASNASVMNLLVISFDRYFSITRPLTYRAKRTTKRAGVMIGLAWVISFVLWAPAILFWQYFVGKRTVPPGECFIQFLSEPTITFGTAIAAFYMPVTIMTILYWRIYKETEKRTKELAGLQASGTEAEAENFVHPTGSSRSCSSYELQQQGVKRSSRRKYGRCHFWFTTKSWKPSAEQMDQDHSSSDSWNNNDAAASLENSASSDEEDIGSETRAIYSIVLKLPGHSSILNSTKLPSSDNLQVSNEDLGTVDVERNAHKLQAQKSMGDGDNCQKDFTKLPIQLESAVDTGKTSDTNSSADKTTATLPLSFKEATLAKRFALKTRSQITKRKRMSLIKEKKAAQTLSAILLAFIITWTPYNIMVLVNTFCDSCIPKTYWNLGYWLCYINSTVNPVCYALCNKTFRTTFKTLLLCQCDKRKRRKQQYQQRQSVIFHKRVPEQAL
Protocol: as §1, §2, §3

vagal bradycardia (M2) = assay: M1/M2 selectivity in the rat: reduction of vagal bradycardia (M2); type: in vivo, rat (male THOM); conditions: iv, 5 minutes before vagus stimulation, 50% reduction of vagal bradycardia (M2), read-out: log ED50, Heart (converted)
Protocol: (§4) The dosage of the substances which reduced either the vagal bradycardia (M2) or the rise in blood pressure (M1) by 50% was determined graphically. For the results see Table II.

[4] = test system: rise in blood pressure (M1); assay: M1/M2 selectivity in the rat: reduction of rise in blood pressure caused by McN-A-343 (M1); type: in vivo, rat (male THOM); conditions: iv, 5 minutes before 0.3 mg/kg McN-A-343 i.v., 50% reduction of rise in blood pressure (M1), read-out: log ED50, Blood pressure (converted)
Protocol: as §4

secretion of saliva = assay: Salivation-inhibiting effect in the rat (pilocarpine); type: in vivo, rat (male THOM); conditions: iv; urethane-anaesthetised rat; i.v.; 2 mg/kg pilocarpine s.c.; 50% reduction of saliva volume; read-out: log ED50, Salivation (converted)
Protocol: The secretion of saliva was initiated by subcutaneous administration of 2 mg/kg of pilocarpine. The saliva was absorbed with blotting paper and the surface area covered was measured every 5 minutes by planimetry. The dosage of the substance which reduced the volume of saliva by 50% was determined graphically. For the results see Table II.

[5] = test system: acetylcholine activity on heart rate; assay: Inhibition of acetylcholine activity on heart rate in the guinea pig; type: in vivo; conditions: Cavia porcellus, iv, 5 min; anaesthetised guinea pig; 5 minutes after test substance; 10 microgram/kg acetylcholine i.v. and i.a.; heart rate by ECG; read-out: log ED50, Heart (converted)
Protocol: (§5) 5 minutes after the administration of the test substance, 10 microgram/kg of acetylcholine were simultaneously injected intravenously and intra-arterially into anaesthetised guinea pigs. The heart rate was recorded directly by extracorporeal derivation of the ECG, the expiration resistance according to Konzett-Rossler and contraction of the exposed bladder. In order to determine the inhibition of the acetylcholine activity on the organs under investigation, dosage/activity curves were recorded and from them -log ED50 values were determined. […] The following compounds for example were investigated as described above: […]

[6] = test system: acetylcholine activity on bronchi; assay: Inhibition of acetylcholine activity on the bronchi in the guinea pig; type: in vivo; conditions: Cavia porcellus, iv, 5 min; anaesthetised guinea pig; 5 minutes after test substance; 10 microgram/kg acetylcholine i.v. and i.a.; expiration resistance (Konzett-Rossler); read-out: log ED50, Bronchi (converted)
Protocol: as §5

[7] = test system: acetylcholine activity on bladder; assay: Inhibition of acetylcholine activity on the bladder in the guinea pig; type: in vivo; conditions: Cavia porcellus, iv, 5 min; anaesthetised guinea pig; 5 minutes after test substance; 10 microgram/kg acetylcholine i.v. and i.a.; contraction of exposed bladder; read-out: log ED50, Bladder (converted)
Protocol: as §5

Row | IC50 [1] [µM] | IC50 [2] [µM] | IC50 [3] [µM] | SMILES | ED50 (vagal bradycardia (M2)) [µmol/kg] | ED50 [4] [µmol/kg] | ED50 (secretion of saliva) [µmol/kg] | ED50 [5] [µmol/kg] | ED50 [6] [µmol/kg] | ED50 [7] [µmol/kg]
1 | 0.2 | 0.02 | 0.55 | O=C1Nc2cccnc2N(C(=O)CN2CCC(CCCN3CCCCC3)CC2)c2ccccc21 [B] |  |  |  | 0.123 | 0.468 | 1.82
2 | 0.05 | 0.009 | 0.2 | O=C1Nc2cccnc2N(C(=O)CN2CCC(CCCCN3CCCCC3)CC2)c2ccccc21 [C] | 0.115 | 3.8 | > 31.6 | 0.0871 | 0.661 | 2.63

Further lines, the molecule ahead of its results:

Row | SMILES | IC50 [1] [µM] | IC50 [2] [µM] | IC50 [3] [µM] | ED50 (vagal bradycardia (M2)) [µmol/kg] | ED50 [4] [µmol/kg] | ED50 (secretion of saliva) [µmol/kg] | ED50 [5] [µmol/kg] | ED50 [6] [µmol/kg] | ED50 [7] [µmol/kg]
3 | Cc1scc2c1N(C(=O)CN1CCC(CCCN3CCCCC3)CC1)c1ccccc1NC2=O [A] | 0.06 | 0.005 | 0.2 | 0.0724 | 1.51 | 6.31 | 0.123 | 0.282 | 2.75
4 | CN1CCC(CCCC2CCN(CC(=O)N3c4ccccc4C(=O)Nc4cccnc43)CC2)CC1 [D] | 0.5 | 0.05 | 1.5 |  |  |  | 0.355 | 0.851 | > 10
5 | CN1CCN(CC(=O)N2c3ccccc3C(=O)Nc3cccnc32)CC1 [F] |  |  |  |  |  |  | 1.41 | 0.269 | 4.37
6 | CN1[C@@H]2CC[C@H]1CC(OC(=O)C(CO)c1ccccc1)C2 (stereo partly drawn) [G] |  |  |  | 0.0115 | 0.0457 |  | 0.02 |  | 0.0933
7 | CCN(CC)CC1CCCCN1CC(=O)N1c2ccccc2C(=O)Nc2cccnc21 (stereo not drawn) [Substance E, 11-[[2-[(diethylamino)methyl]-1-piperidinyl]acetyl]-5,11-dihydro-6H-pyrido [2,3-b][1,4]benzodiazepin-6-one, reference compound] |  |  |  | 0.38 |  | 10 | 1.45 | 2.63 | 18.6
